{
  "source": "patent US20060078541A1",
  "about": "“Method and formula for stem cells' stimulation, targeting release, trafficking and homing” (priority 2004, published 2006)",
  "origin": "cited, not measured here",
  "details": "in vivo",
  "data": [
    {"smiles": "[Cs+]", "note": "[Cesium ions]", "values": [
      {"measurement": "biological half life", "setting": "human", "value": "50-60 days"},
      {"measurement": "assimilated", "value": "~100", "unit": "%"}
    ]}
  ]
}
